These results are taken from ChEMBL document CHEMBL1201862, “PubChem BioAssay data set” (2004).

Test systems include DLD-1; DMS-273; HOP-18; KM-20L2; LXFL 529; M19-MEL; SNB-78; XF498; RXF 631.
Assay in all cases: growth of human tumour cells (NCI), 48 h

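Where inhibition never reached the appropriate level, the endpoint shown equals the highest concentration tested. Otherwise, values were interpolated linearly from a five-concentration, 48-hour dose response in 96-well plates. GI50 is the concentration that inhibits growth by half.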 The source made the active and inactive calls. No stated cut-off is given here; in the data, active = GI50 up to about 1.1 µM and inactive = higher. Where only a bound is given, the exact number is not on record here.

On to `CCN(CC)CCCNc1ccc2ncn3c4ccc(O)cc4c(=O)c1c23`, for which the GI50 is 1.24 µM (inactive) in the experiment with DLD-1; 0.553 µM (active) in the experiment on DMS-273; 18.6 µM (inactive) with HOP-18; 2.85 µM (inactive) in the experiment with KM-20L2; 2.65 µM (inactive) in the experiment with LXFL 529; 5.83 µM (inactive) in the experiment on M19-MEL. Moreover, the GI50 was 8.65 µM (inactive) in the experiment with SNB-78 and 0.239 µM (active) in the experiment with XF498.

Turning to `CC(=O)O[C@]1(C)OC(=O)[C@@H](CC(C)C)N1[N+](=O)[O-]`, the GI50 with DLD-1, with DMS-273, with HOP-18, with KM-20L2, in the experiment on LXFL 529 and in the experiment with M19-MEL was > 100 µM (inactive) in each case. The figures for the GI50 in the experiment with SNB-78 and in the experiment on XF498 were > 100 µM (inactive) and < 0.01 µM (active), respectively.

Consider `CC1(C)OC(=O)C(=C2CC(c3ccccc3)c3ccccc32)C(=O)O1` (centres undefined), for which the GI50 with DLD-1, with HOP-18, in the experiment with KM-20L2, with LXFL 529, in the experiment with M19-MEL and in the experiment with RXF 631 was > 100 µM (inactive) each time. In the experiment on SNB-78, the GI50 was > 100 µM (inactive).

As to `CCOC(=O)N[C@H]1CCc2cc(OC)c(OC)c(OC)c2-c2ccc(SC)c(=O)cc21`, the GI50 in the experiment on DLD-1, in the experiment on DMS-273, in the experiment on KM-20L2, in the experiment with SNB-78 and in the experiment with XF498 was < 0.01 µM (active) each time.

For `CCOc1ccc(/N=C\c2cc(OC)c(OC)c(OC)c2)cc1`, the GI50 in the experiment with DLD-1, in the experiment with DMS-273, in the experiment on HOP-18, with KM-20L2, in the experiment on LXFL 529 and in the experiment on M19-MEL was > 100 µM (inactive) each time. Further, the GI50 in the experiment with SNB-78 and in the experiment on XF498 was > 100 µM (inactive) throughout.

For `[O-][S+]1Nc2cccc(C(F)(F)F)c2S1` (centres undefined), the GI50 in the experiment on DLD-1 was 34.4 µM (inactive); with DMS-273 it was 25.1 µM (inactive); in the experiment with HOP-18, 72.4 µM (inactive); in the experiment with KM-20L2, 29.9 µM (inactive); in the experiment with LXFL 529, 26.5 µM (inactive); in the experiment with M19-MEL, 66.1 µM (inactive). In addition, the figures for the GI50 with SNB-78 and with XF498 were 31.2 µM (inactive) and 21.1 µM (inactive), respectively.

Take `O=c1nc2sc3ccc4ccccc4c3n2nc1-c1ccccc1`: the GI50 in the experiment on DLD-1 is 35.6 µM (inactive); with DMS-273 it was 39.2 µM (inactive); in the experiment on HOP-18, 30.5 µM (inactive); in the experiment on KM-20L2, 62.8 µM (inactive); with LXFL 529, 44.7 µM (inactive); in the experiment with M19-MEL it was 78.3 µM (inactive). For the same compound, the GI50 was 36.6 µM (inactive) in the experiment with RXF 631, 35.8 µM (inactive) with SNB-78 and 29.6 µM (inactive) in the experiment on XF498.

As for `CC(C)N1CC2CC(CN(C(=O)c3ccccc3)C2)C1.[O-][Cl+3]([O-])([O-])O`, the GI50 with DMS-273, in the experiment on HOP-18, in the experiment with KM-20L2, in the experiment on LXFL 529, in the experiment on M19-MEL and in the experiment on RXF 631 was > 100 µM (inactive) in each case. Further, the GI50 in the experiment with XF498 was > 100 µM (inactive).

`Cc1ccccc1NC(=O)C(=O)Cc1nc2ccccc2s1`: the GI50 in the experiment with DLD-1, with DMS-273, in the experiment with HOP-18, in the experiment with LXFL 529, with M19-MEL and with RXF 631 was > 100 µM (inactive) in each case. Besides, the results for the GI50 in the experiment on SNB-78 and in the experiment on XF498 were 92.5 µM (inactive) and > 100 µM (inactive), respectively.

As for `COC(=O)c1ccccc1N1C(=O)Cc2ccccc2C1=O`, the GI50 with DMS-273, in the experiment with KM-20L2, in the experiment with LXFL 529, in the experiment with M19-MEL and in the experiment with SNB-78 was > 100 µM (inactive) in each case.

In the case of `CC1=C(/C(C)=N/NC(=O)C(N)=O)Sc2ccccc2N1`, the GI50 in the experiment on DLD-1, with DMS-273, with HOP-18, in the experiment on KM-20L2, with LXFL 529 and in the experiment with M19-MEL was > 100 µM (inactive) each time. The GI50 in the experiment with SNB-78 and in the experiment on XF498 was > 100 µM (inactive) in each case.

Turning to `COc1nc(NC2OC(COC(C)=O)C(OC(C)=O)C(OC(C)=O)C2OC(C)=O)c(/N=C/C=N/c2c(NC3OC(COC(C)=O)C(OC(C)=O)C(OC(C)=O)C3OC(C)=O)nc(OC)n(C)c2=O)c(=O)n1C` (centres undefined), the GI50 is > 100 µM (inactive) in the experiment with DLD-1; > 100 µM (inactive) with HOP-18; > 100 µM (inactive) in the experiment on KM-20L2; > 100 µM (inactive) in the experiment on LXFL 529; > 100 µM (inactive) with M19-MEL; 44.2 µM (inactive) in the experiment on XF498.

Consider `O=C(N/C(=C\c1ccc(F)cc1)c1nc2ccccc2[nH]1)c1ccccc1`, for which the GI50 in the experiment with DLD-1, in the experiment with HOP-18, in the experiment with KM-20L2, in the experiment on LXFL 529, in the experiment with M19-MEL and with RXF 631 was > 100 µM (inactive) throughout. Moreover, the GI50 in the experiment with SNB-78 and in the experiment with XF498 was > 100 µM (inactive) throughout.

`CC1=C(C(=O)Nc2cc(F)c(F)cc2F)C(c2ccc3c(c2)OCO3)C(C(=O)Nc2cc(F)c(F)cc2F)=C(C)N1`: the GI50 in the experiment on DLD-1 was 18.9 µM (inactive); with KM-20L2 it was 22.3 µM (inactive); in the experiment with LXFL 529, 23.2 µM (inactive); in the experiment with M19-MEL, 20.7 µM (inactive); in the experiment on SNB-78, 17.2 µM (inactive); in the experiment with XF498 it was 6.34 µM (inactive).

Turning to `O=C(c1ccc(Cl)cc1)c1ccc(OCCCCCCCCCCOc2ccc(C(=O)c3ccc(Cl)cc3)cc2)cc1`, the GI50 in the experiment with DLD-1, in the experiment with DMS-273, with KM-20L2, with RXF 631 and in the experiment with SNB-78 was > 100 µM (inactive) in each case.

As for `COc1cc(C(=O)C/C(CCC(=O)Nc2ccccc2[N+](=O)[O-])=N\NC(N)=O)ccc1O`, the GI50 was > 100 µM (inactive) in the experiment on DMS-273; 89.1 µM (inactive) in the experiment on HOP-18; > 100 µM (inactive) in the experiment on KM-20L2; > 100 µM (inactive) in the experiment with M19-MEL; > 100 µM (inactive) in the experiment with RXF 631; > 100 µM (inactive) in the experiment with SNB-78. Besides, the GI50 in the experiment on XF498 was 6.49 µM (inactive).

For the compound `NC(CS)C(=O)NCCNc1ccc(NCCNC(=O)C(N)CS)c2c1C(=O)c1c(O)ccc(O)c1C2=O` (centres undefined), the GI50 in the experiment on DLD-1 is 0.121 µM (active); with DMS-273 it was 0.00168 µM (active); in the experiment on HOP-18, 0.439 µM (active); in the experiment on KM-20L2 it was 0.0618 µM (active); with LXFL 529, 0.106 µM (active); with M19-MEL it was 0.0318 µM (active). The GI50 with SNB-78 is 0.214 µM (active); in the experiment on XF498 it was 0.0138 µM (active).

With `COC(=O)C1=C(C(=O)OC)C2C=CC1C1C(Cl)=C(Cl)C21` (centres undefined), the GI50 with DLD-1, in the experiment with DMS-273, in the experiment on HOP-18, with KM-20L2, in the experiment on LXFL 529 and in the experiment with M19-MEL was > 100 µM (inactive) throughout. In the experiment with RXF 631, the GI50 is > 100 µM (inactive).

On to `COc1c(C(=O)O)oc2c(OC)cccc12`, for which the GI50 in the experiment with DMS-273, with HOP-18, in the experiment with LXFL 529, in the experiment on M19-MEL and with SNB-78 was > 100 µM (inactive) each time.

Turning to `O=C(/C=C/c1ccc(Br)cc1)c1ccc(NCc2nc3ccccc3[nH]2)cc1`, the GI50 with DLD-1 is 4.83 µM (inactive); in the experiment on DMS-273, 5.7 µM (inactive); with HOP-18, > 46.2 µM (inactive); in the experiment with KM-20L2 it was 4.83 µM (inactive); in the experiment on LXFL 529 it was 4.24 µM (inactive); in the experiment on M19-MEL, 6.56 µM (inactive). For the same compound, the GI50 with SNB-78 is 2.98 µM (inactive); in the experiment with XF498 it was 5.89 µM (inactive).

With `C1CCOC2(CCC3(CC2)OCCCCO3)OC1`, the GI50 in the experiment on DLD-1, with DMS-273, in the experiment with HOP-18, in the experiment on KM-20L2, in the experiment on LXFL 529 and in the experiment on M19-MEL was > 100 µM (inactive) in each case. The GI50 with SNB-78 is > 100 µM (inactive).

`CCCC(O)[C@@H](O)c1ccc2c(c1O)C(=O)c1c(OC)cccc1C2=O` (some centres undefined): the GI50 in the experiment on DLD-1 is 36.9 µM (inactive); with DMS-273, 35.5 µM (inactive); with HOP-18, 50.8 µM (inactive); with KM-20L2 it was 50.9 µM (inactive); with M19-MEL, 24.2 µM (inactive); in the experiment with RXF 631, 28.2 µM (inactive). The figures for the GI50 in the experiment on SNB-78 and in the experiment with XF498 were 36.6 µM (inactive) and 20.2 µM (inactive), respectively.

For the compound `Cn1c2ccccc2c2[nH]cc3nc4ccccc4c-3c21`, the GI50 in the experiment on DLD-1 is > 100 µM (inactive); in the experiment with DMS-273, 16.2 µM (inactive); with KM-20L2 it was 16.7 µM (inactive); in the experiment on LXFL 529 it was 25.2 µM (inactive); in the experiment with M19-MEL, 19.7 µM (inactive); with RXF 631, 29.5 µM (inactive). Moreover, the GI50 was 24.5 µM (inactive) with SNB-78 and 17.4 µM (inactive) in the experiment on XF498.

Turning to `COc1ccc(C2Cc3cc(OC)c(OC)c(OC)c3C2)cc1` (centres undefined), the GI50 was 44.7 µM (inactive) with DLD-1; 36.8 µM (inactive) with DMS-273; 72.3 µM (inactive) with HOP-18; 49.8 µM (inactive) in the experiment with KM-20L2; 41.9 µM (inactive) in the experiment on M19-MEL; 72.6 µM (inactive) in the experiment on SNB-78. In addition, the GI50 with XF498 was 11.3 µM (inactive).

As for `O=P1(NCCCl)OCCCN1CCCl` (centres undefined) [IFOSFAMIDE], the GI50 in the experiment with DLD-1 was 380 µM (inactive); with DMS-273, 364 µM (inactive); in the experiment with HOP-18 it was 104 µM (inactive); in the experiment with KM-20L2 it was 385 µM (inactive); in the experiment on LXFL 529 it was 498 µM (inactive); in the experiment on M19-MEL, 395 µM (inactive). Also, the GI50 is 384 µM (inactive) with SNB-78 and 381 µM (inactive) in the experiment on XF498.
